Patent US11963939B2, “Use of N-acetylcysteine to treat central nervous system disorders” (Neuronasal, Inc., priority 2017, dated 2024)

How the values were obtained:
[1] = test system: collagenase-induced mouse model of ICH; test: In vivo collagenase-induced mouse model of ICH (Fluoro-Jade staining, corner task, adhesive tape removal task, hematoma size)
Protocol: In vivo collagenase-induced mouse model of ICH: Male C57BL/6 mice (8 to 10 weeks of age) or mice (10 to 12 weeks of age) were anesthetized with isoflurane (2% to 5%) and placed on a stereotaxic frame. During the procedure, the animal's body temperature was maintained at 37° C. with a homeothermic blanket. 1 mL of collagenase (0.075 IU) was infused into the right striatum at a flow rate of 0.120 μL/min using a Nanomite® syringe pump and a syringe. Relative to the bregma point, the stereotaxic coordinates of the injection were: lateral, −0.20; anteroposterior, 0.62; and dorsoventral, −0.40. In control animals, 1 mL of saline was infused. The treatment group received NAC (75 mg/kg or 300 mg/kg in normal saline, I.P.) once a day for 7 days starting at 2 h after collagenase infusion. For combinatorial studies, NAC (40 mg/kg, I.P.) and PGE 2 (10 μM, ICV) were administered to the mice 2 h after the collagenase injection, and then NAC (40 mg/kg) was administered once daily for 7 days. The control groups received the vehicle (normal saline) alone. The animals were randomized to sham or ICH groups. The identities of the mice that received vehicle or NAC were masked to surgeons who performed the experiments. […] Proper postoperative care was provided until the animals recovered completely.
Behavioral analysis: The corner task assessed integrated sensorimotor function in the stimulation of vibrissae (sensory neglect) and rearing (motor response). Mice were placed between two cardboard pieces that formed a corner with a 30° angle. While maintaining the 30° angle, the boards were gradually moved toward the mouse until the mouse approached the corner, reared upward, and turned 180° to face the open end. The direction (left or right) in which the mouse turned was recorded for each trial. Ten trials were performed for each mouse.
For the sensory neglect task (adhesive tape removal task), adhesive tape was placed on the planter region of the forward paw (right and left) of each mouse. The time from which the tape was applied to when the mouse successfully removed the tape was recorded for each paw. A maximum of 300 s for each paw was allowed.
Fluoro-Jade® B staining: Neurodegeneration of cells was assessed in mice with collagenase-induced ICH using Fluoro-Jade® B staining. 40 μM brain sections were mounted on gelatin-coated slides and dried at room temperature overnight. The sections were immersed in a graded series of alcohol solutions before being immersed in a 0.06% potassium permanganate (KMnO4) solution for 15 min. Sections were washed with water before being immersed in a 0.001% Fluoro-Jade® staining solution with gentle shaking in the dark for 30 min. The sections were then washed with water and dried overnight at room temperature in the dark before being dehydrated and coverslipped with DPX. Fluoro-Jade® B staining was examined within perihematoma or hematoma regions using a fluorescence microscope. Quantification of Fluoro-Jade® B staining was performed using three brain sections (anterior to posterior of hematoma) using Metamorph analysis.
The vehicle or NAC was then administered daily up to 7 days following the ictus. Neuronal loss was determined using a non-specific marker of neurodegeneration, Fluoro-Jade® staining. […] Mouse behavior was assessed using a corner task (spatial neglect) and an adhesive tape removal task (sensory neglect). Mouse behavior was assessed on day 1, 3, and 7 after the induction of ICH.

Chac1 = Chac1 gene expression in ICH mice by quantitative RT-PCR; format: in vivo, mouse; conditions: ICH mice after NAC treatment
Source text: Total glutathione levels were unchanged after NAC treatment in ICH mice. […] FIG. 29 illustrates an experimental design to study the effect of NAC on total glutathione levels in the striatum of a collagenase infusion mouse model of ICH. […] FIG. 31 illustrates that ICH-induced ATF4 dependent Chac1 degraded glutathione to 5-oxoproline.

ALOX5 = ALOX5 mRNA levels in hemin-treated primary cortical neurons (RT-PCR); format: cell-based, mouse; conditions: NAC 1 mM
Protocol: Quantitative real-time PCR: Total RNA was prepared using a NucleoSpin® RNA II kit. Duplex real-time PCR reactions were performed with gene expression assays using 6-carboxyfluorescein-labeled probes for ALOX5 (Mm 01182747_m1) and ALOX5AP (Mm 01218551_m1). Expression levels were normalized to β-actin gene expression levels, which were determined with a VIC™-labeled probe. All experiments were performed using a real-time PCR system.
The abilities of hemin and NAC to induce increases in ALOX5 and ALOX AP mRNA levels were examined. […] Consistent with the protein data (FIG. 17), hemin induced increases in ALOX AP and ALOX5 mRNA levels in a time-dependent manner.

primary cortical neurons = test: cells; format: cell-based, mouse; conditions: Mus musculus, Primary cortical neuron; 100 μM hemin, primary cortical neurons; read-out: EC50 for reduction of hemin-induced toxicity/ferroptosis
Protocol: Primary cortical neuronal cultures: Primary cortical neurons were collected from embryonic (E15) CD1 mice. The cortices of the mice were dissected, homogenized, and plated in minimum essential medium containing 10% fetal bovine serum (FBS), 5% horse serum, and 1% penicillin/streptomycin in 96-well plates, 6-well plates, or 10-cm dishes. The neurons were maintained at 37° C. with 5% CO2. All experiments were conducted 24 hours after plating.
In vitro ICH model: Ferroptosis is a type of programmed cell death that is dependent on iron, and is characterized by the accumulation of lipid peroxides. Ferroptosis is genetically and biochemically distinct from other forms of regulated cell death such as apoptosis. Ferroptosis is initiated by the failure of the glutathione-dependent antioxidant defenses, resulting in unchecked lipid peroxidation and eventual cell death.
Cell death was induced in primary cortical neurons by treating the neurons with hemin, a blood breakdown product. For the neuroprotection studies, cells were treated with hemin (100 μM) in the presence of NAC (0.1 mM to 1mM), 6-hydroxy-2,5,7,8-tetramethylchroman-2-carboxylic acid (trolox; 0.1 μM to 100 μM), β-carotene (0.1 μM to 100 μM) α-lipoic acid (0.01 mM to 2 mM), glutathione ethyl ester (1 mM to 10 mM), oxothiazolidine-4-carboxylate (1 mM to 10 mM), cystamine (0.1 μM to 10 μM), or nordihydroguaiaretic acid (0.1 μM to 10 μM). Cell viability was analyzed 24 h after treatment. The cells were rinsed with warm phosphate-buffered saline (PBS) and assessed using an MTT assay. The fidelity of the MTT assays in measuring viability was verified by calcein-AM/ethidium homodimer-1 staining (Live/Dead assay).
The ability of NAC to protect cells was investigated in a hemin model of hemorrhagic stroke. The in vitro model of ICH involved the administration of hemin, a breakdown product of hemoglobin from lysed blood, to trigger cell death. Treatment of primary cortical neurons with 100 μM hemin induced widespread cell death through a ferroptotic mechanism, which was quantified with MTT and qualitatively observed using live/dead staining. Living cells were labeled with calcein-AM, and dead cells were labeled with ethidium homodimer. […] Scale bars: 100 μm.
A systematic pharmacological screening of oxidized lipid species inhibitors in the context of hemin-induced cell death was performed in primary cortical neurons. Primary cortical neurons were co-treated with hemin and a non-specific or enzymatic lipid peroxidation inhibitor. The MTT assays were performed 18 h following the co-treatment.

recombinant ALOX5 = target: T1, recombinant ALOX5 (Homo sapiens, UniProt P09917); test: Lipoxygenase UV/Vis-based IC50 assay with recombinant ALOX5; format: biochemical; conditions: test tube assay
T1 sequence (P09917 1-674): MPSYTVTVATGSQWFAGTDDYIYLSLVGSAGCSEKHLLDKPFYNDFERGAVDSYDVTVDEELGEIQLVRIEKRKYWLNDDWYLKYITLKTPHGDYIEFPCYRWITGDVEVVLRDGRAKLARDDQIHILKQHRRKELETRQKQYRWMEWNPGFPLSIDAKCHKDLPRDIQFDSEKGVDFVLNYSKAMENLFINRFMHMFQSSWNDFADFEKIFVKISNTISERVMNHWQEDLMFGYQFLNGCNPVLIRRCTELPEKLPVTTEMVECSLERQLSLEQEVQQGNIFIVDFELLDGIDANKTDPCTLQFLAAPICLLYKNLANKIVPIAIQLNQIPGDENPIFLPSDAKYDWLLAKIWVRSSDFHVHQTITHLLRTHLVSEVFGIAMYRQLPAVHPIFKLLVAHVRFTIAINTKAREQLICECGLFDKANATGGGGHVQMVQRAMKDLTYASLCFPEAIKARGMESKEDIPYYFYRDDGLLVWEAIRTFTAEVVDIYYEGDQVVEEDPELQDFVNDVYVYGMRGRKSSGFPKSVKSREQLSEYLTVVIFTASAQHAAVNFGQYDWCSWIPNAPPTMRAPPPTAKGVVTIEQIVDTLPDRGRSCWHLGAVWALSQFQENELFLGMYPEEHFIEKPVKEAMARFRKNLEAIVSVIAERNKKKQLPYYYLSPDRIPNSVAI
Protocol: Lipoxygenase UV/Vis-based IC50 assay: Inhibition potencies were determined by following the formation of conjugated diene products, 5-HpETE [ε=27000 M^−1 cm^−1 for AA turnover) at 234 nm using a UV/Vis spectrophotometer. All reaction mixtures were 2 mL in volume, and the reaction mixtures were constantly stirred using a magnetic stir bar at room temperature (23° C.). All reactions were carried out in a buffer containing 200 μM ATP and 10 μM AA. The AA concentration of a sample was verified by full turnover with soybean-1 lipoxygenase and quantifying the product concentration. Inhibitors were stored in DMSO at −20° C. Enzymatic reactions were initiated by adding approximately 100 nM-300 nM ammonium sulfate-precipitated wildtype enzyme. IC50 values were obtained by determining the enzymatic rate at a minimum of five inhibitor concentrations, plotting the enzymatic rate against inhibitor concentration, and performing a hyperbolic saturation curve fit. Inhibitor concentrations were assayed in duplicate or triplicate.
Significance was determined by two-way ANOVA and Bonferroni's post hoc test.

[2] = NAC 40 mg/kg i.p. and/or PGE2 10 μM ICV, days 1, 3, 7

CC(=O)N[C@@H](CS)C(=O)O [NAC, N-acetylcysteine]
Hematoma size by light microscopy ([1]; 75 mg/kg or 300 mg/kg NAC vs control ICH group): No significant difference
Adhesive tape removal task (sensory neglect) ([1]; 300 mg/kg NAC, days 1, 3, 7): improvements in sensory neglect were observed
Corner turn task deficits (spatial neglect) ([1]; 300 mg/kg NAC, days 1, 3, 7): corrected by administration of 300 mg/kg NAC
Sensory neglect (adhesive tape removal task) behavioral deficits [1, 2]: no effect
Spatial neglect (corner task) behavioral deficits [1, 2]: no effect
Neuronal degeneration in perihematomal regions (Fluoro-Jade staining) ([1]; NAC 40 mg/kg i.p. daily 7 days and/or dmPGE2 10 μM ICV 2 h post-injury): no significant effect
Neuronal degeneration in perihematomal regions (Fluoro-Jade staining) ([1]; NAC 300 mg/kg I.P. daily from 2 h post-ICH, day 7): reduced neuronal degeneration in perihematomal regions
Collagenase activity by hematoma size ([1]; NAC 300 mg/kg, 24 h after collagenase injection): did not inhibit or affect collagenase activity
ATF4-regulated Chac1 (Chac1): decreased after NAC treatment
Hemin-induced ALOX5 expression (ALOX5): blocked the expression of ALOX5
Lesion volume and functional recovery (ICH model of rats; 40 mg/kg or 75 mg/kg, 2 h post-ICH): not effective in reducing lesion volume or improving functional recovery
Toxicity of higher doses (ICH model of rats; 300 mg/kg): caused significant toxicity in rats, including paralytic ileus and/or death
Highest dose tolerated without toxicity (ICH model of rats; ICH model): 40 mg/kg
EC50 (primary cortical neurons): 500 µM
Inhibition of ALOX5 activity (recombinant ALOX5): did not inhibit ALOX5 activity
